≈ marks a conversion by molar mass, not a printed value. Entries after “also recorded” stand apart in the source; their conditions may differ. Marks after values point to notes of the source that are not given here.
How the values were obtained:
BSEP [1] = biological target: T1, BSEP (Homo sapiens, UniProt O95342); experiment: ATP-dependent uptake of test article by BSEP-transfected Sf9 membrane vesicles (substrate assessment); conditions: for ATP-dependent BSEP uptake activity relative to AMP uptake / substrate of BSEP (conclusion in words) / inhibition of test article uptake by cyclosporine A: test article 1 and 10 μM; for substrate of BSEP (conclusion in words): criteria ≥2-fold ATP-dependent uptake and >50% inhibition by selective inhibitor; for inhibition of test article uptake by cyclosporine A: cyclosporine A 20 μM
T1 sequence (O95342 whole entry): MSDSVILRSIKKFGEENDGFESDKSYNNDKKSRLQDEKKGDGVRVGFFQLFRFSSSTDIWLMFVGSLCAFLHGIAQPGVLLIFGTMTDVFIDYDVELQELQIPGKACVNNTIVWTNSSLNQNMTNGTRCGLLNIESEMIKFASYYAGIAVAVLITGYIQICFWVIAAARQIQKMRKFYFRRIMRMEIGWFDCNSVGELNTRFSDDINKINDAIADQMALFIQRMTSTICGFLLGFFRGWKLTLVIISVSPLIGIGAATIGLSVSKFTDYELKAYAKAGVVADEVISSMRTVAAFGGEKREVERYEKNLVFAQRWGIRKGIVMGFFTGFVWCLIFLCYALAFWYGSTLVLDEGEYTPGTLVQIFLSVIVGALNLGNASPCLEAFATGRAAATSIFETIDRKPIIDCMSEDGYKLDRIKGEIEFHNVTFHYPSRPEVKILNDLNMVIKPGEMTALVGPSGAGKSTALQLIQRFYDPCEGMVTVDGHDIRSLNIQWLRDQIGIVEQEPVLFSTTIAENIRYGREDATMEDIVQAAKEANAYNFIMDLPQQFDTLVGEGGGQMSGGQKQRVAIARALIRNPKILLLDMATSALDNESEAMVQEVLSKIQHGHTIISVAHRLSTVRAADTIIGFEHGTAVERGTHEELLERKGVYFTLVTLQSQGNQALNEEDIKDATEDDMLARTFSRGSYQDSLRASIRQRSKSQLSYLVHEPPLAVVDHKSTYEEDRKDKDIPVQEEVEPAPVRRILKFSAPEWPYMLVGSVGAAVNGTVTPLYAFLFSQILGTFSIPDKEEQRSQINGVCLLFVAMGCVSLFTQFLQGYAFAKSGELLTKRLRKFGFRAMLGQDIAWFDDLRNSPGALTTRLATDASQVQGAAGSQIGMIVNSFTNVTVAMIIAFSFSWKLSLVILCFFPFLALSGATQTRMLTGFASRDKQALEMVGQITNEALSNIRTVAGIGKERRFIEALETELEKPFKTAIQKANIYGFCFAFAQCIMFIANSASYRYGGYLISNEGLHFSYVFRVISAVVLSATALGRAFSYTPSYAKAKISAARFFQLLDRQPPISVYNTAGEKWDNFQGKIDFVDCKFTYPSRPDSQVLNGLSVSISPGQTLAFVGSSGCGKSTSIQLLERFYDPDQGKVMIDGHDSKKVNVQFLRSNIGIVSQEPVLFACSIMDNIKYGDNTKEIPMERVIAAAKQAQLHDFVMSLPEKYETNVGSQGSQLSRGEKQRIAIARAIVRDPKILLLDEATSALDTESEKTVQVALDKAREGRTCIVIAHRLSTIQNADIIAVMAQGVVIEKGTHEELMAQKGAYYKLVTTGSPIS

[2] = Solubility in stock solvent and assay buffers
Caco-2 cells = experiment: Recovery of test article in the Caco-2 efflux assay; type: in vitro ADME; conditions: 1 and 10 μM, in the presence of cells
Protocol: Non-specific binding of phenylacetic acid to the transwell assay plate in the absence of cells was not conducted. However, the recovery of the test article (1 and 10 μM) was determined in the Caco-2 efflux assay, in the presence of cells, and was acceptable.

BSEP [3] = biological target: T1, BSEP; experiment: in vitro
BSEP [4] = biological target: T1, BSEP; experiment: Inhibition of 3H-taurocholic acid uptake by BSEP membrane vesicles (inhibitor assessment); conditions: for inhibitor of BSEP (conclusion in words): criterion >25% concentration-dependent inhibition of probe substrate uptake; for ATP-Dependent Uptake Activity of 3H-taurocholic acid / Signal-to-Noise Ratio / Uptake Activity of 3H-taurocholic acid, Mg-AMP / Uptake Activity of 3H-taurocholic acid, Mg-ATP: 3H-taurocholic acid 1 μM
[5] = test article 1 μM + cyclosporine 20 μM
[6] = test article 10 μM + cyclosporine 20 μM
[7] = methanol, organic solvent or mixture
[8] = assay buffers, aqueous buffer, kinetic from dmso stock
[9] = test article 10 μM, listed as UA

Compound	ATP-Dependent Uptake Activity of test article (BSEP [1]; test article 1 μM)	Signal-to-Noise Ratio (BSEP [1]; test article 1 μM)	Uptake Activity of test article, Mg-AMP (BSEP [1]; test article 1 μM)	Uptake Activity of test article, Mg-ATP (BSEP [1]; test article 1 μM)	Uptake Activity of test article, Mg-AMP (BSEP [1]; [5])	Uptake Activity of test article, Mg-ATP (BSEP [1]; [5])	ATP-Dependent Uptake Activity of test article (BSEP [1]; test article 10 μM) [pmol/minute/mg protein]	Signal-to-Noise Ratio (BSEP [1]; test article 10 μM)	Uptake Activity of test article, Mg-AMP (BSEP [1]; test article 10 μM)	Uptake Activity of test article, Mg-ATP (BSEP [1]; test article 10 μM)	ATP-Dependent Uptake Activity of test article (BSEP [1]; [6]) [pmol/minute/mg protein]	Signal-to-Noise Ratio (BSEP [1]; [6])	Uptake Activity of test article, Mg-AMP (BSEP [1]; [6])	Uptake Activity of test article, Mg-ATP (BSEP [1]; [6])	ATP-dependent BSEP uptake activity relative to AMP uptake (BSEP [1]) [fold]	substrate of BSEP (conclusion in words) (BSEP [1])	inhibition of test article uptake by cyclosporine A (BSEP [1])	solubility [2, 7] [mM]	potency estimated from few doses at 30 min (BSEP [3]) [µM]	inhibitor of BSEP (conclusion in words) (BSEP [4])	also measured
O=C(O)Cc1ccccc1 [Phenylacetic acid]	24.2 pmol/minute/mg protein	9.95	2.71^b pmol/minute/mg protein	26.9 pmol/minute/mg protein	7.60^c pmol/minute/mg protein	25.9 pmol/minute/mg protein	814	12.6	70.3 pmol/minute/mg protein	884 pmol/minute/mg protein	772	10.1	84.7 pmol/minute/mg protein	857 pmol/minute/mg protein	> 2	not identified as a substrate	not inhibited by cyclosporine A	1500 (≈ 204000 µg/mL)	< 7500	strongly inhibited; also recorded: identified as an inhibitor of BSEP; also recorded: inhibited BSEP	ATP-Dependent Uptake Activity of test article (BSEP [1]; [5]): 18.3 pmol/minute/mg protein; Signal-to-Noise Ratio (BSEP [1]; [5]): 3.41; substrate of BSEP (conclusion in words) (BSEP [1]; listed as phenylacetic acid): not a substrate; also recorded: unlikely that phenylacetic acid is a substrate; solubility ([2]; aqueous buffer, kinetic from dmso stock): 7.5 mM (≈ 1020 µg/mL); recovery of the test article in the Caco-2 efflux assay (Caco-2 cells): acceptable; activity at 30 min, 750 μM (BSEP [3]): 99.6%; activity at 30 min, 7500 μM (BSEP [3]): 0%; inhibitor of BSEP (conclusion in words) (BSEP [4]; listed as phenylacetic acid): inhibit BSEP; ATP-Dependent Uptake Activity of 3H-taurocholic acid (BSEP [4]; inhibitor 750 μM): 4.68 pmol/minute/mg protein; Signal-to-Noise Ratio (BSEP [4]; inhibitor 750 μM): 17.2; Uptake Activity of 3H-taurocholic acid, Mg-AMP (BSEP [4]; inhibitor 750 μM): 0.288 pmol/minute/mg protein; Uptake Activity of 3H-taurocholic acid, Mg-ATP (BSEP [4]; inhibitor 750 μM): 4.96 pmol/minute/mg protein; ATP-Dependent Uptake Activity of 3H-taurocholic acid (BSEP [4]; inhibitor 7500 μM): −0.136 pmol/minute/mg protein; Signal-to-Noise Ratio (BSEP [4]; inhibitor 7500 μM): 0.731; Uptake Activity of 3H-taurocholic acid, Mg-AMP (BSEP [4]; inhibitor 7500 μM): 0.506 pmol/minute/mg protein; Uptake Activity of 3H-taurocholic acid, Mg-ATP (BSEP [4]; inhibitor 7500 μM): 0.370 pmol/minute/mg protein
C[C@H](CCC(=O)NCCS(=O)(=O)O)[C@H]1CC[C@H]2[C@@H]3[C@@H](O)C[C@@H]4C[C@H](O)CC[C@]4(C)[C@H]3CC[C@]12C [Tauroursodeoxycholic acid]	14.4 pmol/minute/mg protein	3.94	4.90^c pmol/minute/mg protein	19.3^b pmol/minute/mg protein	BLQ	BLQ	22.4	10.6	2.33 pmol/minute/mg protein	24.7 pmol/minute/mg protein	2.81	1.71	3.98 pmol/minute/mg protein	6.79 pmol/minute/mg protein	> 2	a substrate of BSEP transporters	inhibited by cyclosporine A	10 (≈ 5000 µg/mL)	< 5	strongly inhibited; also recorded: inhibited	remaining BSEP activity after cyclosporine A treatment (BSEP [1]; test article 1 and 10 μM + cyclosporine A 20 μM): ≤ 12.6%; substrate of BSEP (conclusion in words) (BSEP [1]; listed as tauroursodeoxycholic acid): a substrate of BSEP; solubility [2, 8]: 0.05 mM (≈ 25 µg/mL); activity at 30 min, 5 μM (BSEP [3]): 46.2%; activity at 30 min, 50 μM (BSEP [3]): 5.14%; inhibitor of BSEP (conclusion in words) (BSEP [4]; listed as TURSO): inhibitors of BSEP; ATP-Dependent Uptake Activity of 3H-taurocholic acid (BSEP [4]; inhibitor 5 μM): 6.71 pmol/minute/mg protein; Signal-to-Noise Ratio (BSEP [4]; inhibitor 5 μM): 10.1^b; Uptake Activity of 3H-taurocholic acid, Mg-AMP (BSEP [4]; inhibitor 5 μM): 0.737 pmol/minute/mg protein; Uptake Activity of 3H-taurocholic acid, Mg-ATP (BSEP [4]; inhibitor 5 μM): 7.45^b pmol/minute/mg protein; ATP-Dependent Uptake Activity of 3H-taurocholic acid (BSEP [4]; inhibitor 50 μM): 0.747 pmol/minute/mg protein; Signal-to-Noise Ratio (BSEP [4]; inhibitor 50 μM): 2.34; Uptake Activity of 3H-taurocholic acid, Mg-AMP (BSEP [4]; inhibitor 50 μM): 0.556 pmol/minute/mg protein; Uptake Activity of 3H-taurocholic acid, Mg-ATP (BSEP [4]; inhibitor 50 μM): 1.30 pmol/minute/mg protein
C[C@H](CCC(=O)O)[C@H]1CC[C@H]2[C@@H]3[C@@H](O)C[C@@H]4C[C@H](O)CC[C@]4(C)[C@H]3CC[C@]12C [Ursodeoxycholic acid]	could not be detected		BLQ	BLQ	BLQ	BLQ	0.792	1.26	3.08^b pmol/minute/mg protein	3.87^b pmol/minute/mg protein			BLQ	5.61^b pmol/minute/mg protein	< 2	not a substrate		100 (≈ 39300 µg/mL)	< 500	inhibited uptake of the probe substrate	ATP-Dependent Uptake Activity of test article (BSEP [1]; [9]): 0.792^b pmol/minute/mg protein; Signal-to-Noise Ratio (BSEP [1]; [9]): 1.26^b; substrate of BSEP (conclusion in words) (BSEP [1]; listed as ursodeoxycholic acid): not a substrate of BSEP; solubility [2, 8]: 0.5 mM (≈ 196 µg/mL); IC50 at 30 min (BSEP [3]): < 500 µM; activity at 30 min, 50 μM (BSEP [3]): 64%; activity at 30 min, 500 μM (BSEP [3]): 4.5%; inhibitor of BSEP (conclusion in words) (BSEP [4]; listed as ursodeoxycholic acid): inhibitors of BSEP; ATP-Dependent Uptake Activity of 3H-taurocholic acid (BSEP [4]; inhibitor 50 μM): 6.04 pmol/minute/mg protein; Signal-to-Noise Ratio (BSEP [4]; inhibitor 50 μM): 9.66; Uptake Activity of 3H-taurocholic acid, Mg-AMP (BSEP [4]; inhibitor 50 μM): 0.697 pmol/minute/mg protein; Uptake Activity of 3H-taurocholic acid, Mg-ATP (BSEP [4]; inhibitor 50 μM): 6.73 pmol/minute/mg protein; ATP-Dependent Uptake Activity of 3H-taurocholic acid (BSEP [4]; inhibitor 500 μM): 0.425 pmol/minute/mg protein; Signal-to-Noise Ratio (BSEP [4]; inhibitor 500 μM): 1.95; Uptake Activity of 3H-taurocholic acid, Mg-AMP (BSEP [4]; inhibitor 500 μM): 0.449 pmol/minute/mg protein; Uptake Activity of 3H-taurocholic acid, Mg-ATP (BSEP [4]; inhibitor 500 μM): 0.873 pmol/minute/mg protein

— patent US12138272B2, “Methods and compositions for treating amyotrophic lateral sclerosis” (Amylyx Pharmaceuticals, Inc., priority 2022, dated 2024)
